Data reported in patent publication US20240122897A1, “DMT SALTS AND THEIR USE TO TREAT BRAIN INJURY” (ALGERNON PHARMACEUTICALS INC., priority 2021, published 2024).
Read-outs that look alike come from different tables or passages of the source.

Key:
[1] = target: T1, Serotonin (5-Hydroxytryptamine) 5-HT2A (Homo sapiens, UniProt P28223); assay: biochemical; format: binding
T1 construct: purchased Eurofins Panlabs, Inc. 271650

sigma-1 receptor [2] = target: T2, sigma-1 receptor (Homo sapiens, UniProt Q99720)
Description: (§1) IC50 values were determined by a non-linear, least squares regression analysis using MathIQ™ (ID Business Solutions Ltd., UK). […] The Hill coefficient (nH), defining the slope of the competitive binding curve, was calculated using MathIQ™.
(§2) Biochemical assay results are presented as the percent inhibition of specific binding or activity. All other results are expressed in terms of that assay's quantitation method. Primary screening in duplicate with semi-quantitative data (e.g., estimated IC50, Ki and nH) are shown.

sigma-1 receptor [3] = target: T2, sigma-1 receptor; assay: biochemical; conditions: for IC50: IC50, estimated, duplicate; for Ki: Cheng and Prusoff
Description: as §1, §2

[4] = test system: primary rat cortical neurons; assay: Neurite outgrowth of primary rat cortical neurons (MAP-2 immunocytochemistry)
[5] = test system: cerebral ischemia-reperfusion injury; conditions: rat; cited from earlier work
[6] = in vivo, cited from earlier work

T2 sequence (Q99720 whole entry): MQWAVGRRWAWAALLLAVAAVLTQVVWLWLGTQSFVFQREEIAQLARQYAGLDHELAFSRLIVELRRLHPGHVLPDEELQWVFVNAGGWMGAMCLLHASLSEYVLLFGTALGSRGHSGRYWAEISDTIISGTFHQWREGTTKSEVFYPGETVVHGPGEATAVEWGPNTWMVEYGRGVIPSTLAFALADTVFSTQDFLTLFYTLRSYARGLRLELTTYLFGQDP
T1 sequence (P28223 whole entry): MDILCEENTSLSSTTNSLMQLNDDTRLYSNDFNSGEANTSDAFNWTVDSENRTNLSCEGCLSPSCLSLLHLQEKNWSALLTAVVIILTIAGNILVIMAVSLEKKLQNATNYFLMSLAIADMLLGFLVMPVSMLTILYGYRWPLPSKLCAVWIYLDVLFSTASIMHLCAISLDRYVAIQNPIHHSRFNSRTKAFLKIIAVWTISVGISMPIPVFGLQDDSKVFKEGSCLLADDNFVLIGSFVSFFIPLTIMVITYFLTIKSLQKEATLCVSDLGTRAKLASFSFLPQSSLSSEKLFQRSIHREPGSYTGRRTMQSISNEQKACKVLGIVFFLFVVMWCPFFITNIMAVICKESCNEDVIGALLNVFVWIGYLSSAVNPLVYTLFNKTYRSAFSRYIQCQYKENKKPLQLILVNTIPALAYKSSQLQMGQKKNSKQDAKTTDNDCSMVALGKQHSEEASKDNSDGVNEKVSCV

Structure (SMILES)	nH (Hill coefficient) [1]	% Inh. ([1]; 0.01 µM)	% Inh. ([1]; 0.03 μM)	% Inh. ([1]; 0.3 µM)	% Inh. ([1]; 1 μM)	IC50 [1]	Ki [1]	inhibition at 0.1 µM ([1]; read-out: % Inh.)	inhibition at 3 µM ([1]; read-out: % Inh.)	inhibition at 10 µM ([1]; read-out: % Inh.)	% Inh. (sigma-1 receptor [2]; 10 nM, 0.01 µM)	% Inh. (sigma-1 receptor [2]; 0.03 μM)	% Inh. (sigma-1 receptor [2]; 0.1 μM)	% Inh. (sigma-1 receptor [2]; 0.5 μM)	% Inh. (sigma-1 receptor [2]; 1 μM)	% Inh. (sigma-1 receptor [2]; 5 μM)	% Inh. (sigma-1 receptor [2]; 10 μM)	% Inh. (sigma-1 receptor [2]; 16 μM)	% Inh. ([1]; 0.003 µM)	nH (Hill coefficient) (sigma-1 receptor [2])	further results
CN(C)CCc1c[nH]c2ccccc12 [N,N-Dimethyltryptamine nicotinate]	0.71	14%	17%	31%	59%	0.6 µM	0.17 µM	19%	79%	92%	−6%	−9%	−3%	−13%	5%	23%	44%	44%	–	–	inhibition at 0.003 µM ([1]; read-out: % Inh.): 7%; binding affinity to sigma-1-receptors (sigma-1 receptor [2]; at concentrations above 0.5 μM): good binding affinity
CN(C)CCc1c[nH]c2ccccc12 [N,N-Dimethyltryptamine pamoate]	0.92	10%	20%	–	86%	0.19 µM	0.054 µM	34%	95%	100%	−14%	−10%	0%	1%	6%	45%	–	77%	2%	1.35	5HT2A binding compared to DMT fumarate [1]: improved 5HT2A binding; inhibition at 0.3 µM ([1]; read-out: % Inh.): 56%; affinity to sigma-1 receptors compared to DMT fumarate (sigma-1 receptor [2]; at concentrations above 1 μM): better affinity; IC50 (sigma-1 receptor [3]): 6.31 µM; Ki (sigma-1 receptor [3]): 3.25 µM; inhibition at 10 µM (sigma-1 receptor [3]; read-out: % Inh., 10 μM): 64%
CN(C)CCc1c[nH]c2ccccc12.O=C(O)/C=C/C(=O)O [N,N-Dimethyltryptamine fumarate, reference compound]	0.75	–	–	48%	–	0.25 µM	0.071 µM	–	–	–	–	15%	7%	5%	14%	–	50%	–	8%	0.76	% Inh. ([1]; 0.1 μM): 26%; % Inh. ([1]; 3 µM): 93%; % Inh. ([1]; 10 μM): 98%; inhibition at 0.01 µM ([1]; read-out: % Inh.): 15%; inhibition at 0.03 µM ([1]; read-out: % Inh.): 24%; inhibition at 1 µM ([1]; read-out: % Inh.): 76%; % Inh. (sigma-1 receptor [2]; 10 nM): 6%; IC50 (sigma-1 receptor [3]): 10.2 µM; Ki (sigma-1 receptor [3]): 5.28 µM; inhibition at 5 µM (sigma-1 receptor [3]; read-out: % Inh., 5 μM): 36%; inhibition at 16 µM (sigma-1 receptor [3]; read-out: % Inh., 16 μM): 59%
CNC1(c2ccccc2Cl)CCCCC1=O (stereo not drawn) [Ketamine]	–	–	–	–	–	–	–	–	–	–	–	–	–	–	–	–	–	–	–	–	neurite outgrowth ([4]; 10 nM, 1-72 h stimulation): did not show any significant beneficial effects
CN(C)CCc1c[nH]c2ccccc12 [DMT, N, N-Dimethyltryptamine]	–	–	–	–	–	–	–	–	–	–	–	–	–	–	–	–	–	–	–	–	functional recovery [5]: improved; infarct (dead cells) volume [5]: reduced; oral availability ([6]; po): not orally available; half-life [6]: 15 min; neurite outgrowth of rat cortical neurons ([4]; DMT stimulation, overall): showed beneficial effects
